Test results taken from patent US5989846A, “Assays to identify inducers of plant defense resistance” (Rutgers, The State University of New Jersey, priority 1995, dated 1999).

How the values were obtained:
[1] = test system: salicylic acid binding protein; assay: Effect of antioxidants on salicylic acid binding activity; set-up: species or system tobacco; details: 20 mM citrate, 5 mM MgCl, 10% glycerol pH 6.5, FIG. 5
Description: This was measured in buffers containing 20 mM citrate, 5 mM MgCl and 10% glycerol pH 6.5 in addition to the indicated concentrations of antioxidant.
A key element during the characterization and the purification process is a simple, inexpensive, sensitive and reliable method for determining the salicylic acid binding activity. For this purpose, spin-column exclusion chromatography was used to separate the bound [^14 C] salicylic acid (excluded) from the bulk free salicylic acid (included). Specifically, a 1.5 ml Eppendorf tube was punctured at the tip with a 20-gauge needle and a small amount of glass wool was added to cover the small hole. The tube was then filled with Bio-Gel P-6DG desalting gel (exclusion limit 6 KDa; purchased from Bio-Rad, Melville, N.Y.) which have been swollen in water. An alternative gel is Sephadex G-25 fine (from Pharmacia, Piscataway, N.J.). Excess liquid in the gel was removed and centrifuged for 5 minutes at full speed in a Dynamic centrifuge (Becton Dickinson). The process was then repeated several times until the gel filled the tube. After incubation of an aliquot of the extract or column fractions for 2 hr at 4° C. with 5 μM-20 μM [^14 C salicylic acid] (specifically radioactivity 55 Ci/mol; purchased from New England Nuclear), 150 μl of proteins binding sample was loaded onto the tube column, which was then rapidly centrifuged for 2 minutes at full speed and the solution of proteins and bound [^14 C-salicylic acid] that was excluded from the gel was collected into another tube that had been placed under the tube column during the centrifugation. One hundred microliters of this solution was then used to determine the amount of bound salicylic acid. […] For example, to determine the inhibitory effect of various salicylic acid analogues on salicylic acid binding activity, these individual analogues were included in the binding mixture containing both the protein and [^14 C] salicylic acid during the 2 hr incubation, and resulting binding activity was determined in comparison to the activity in the absence of these analogues. […]

PR1 genes = assay: PR-1 protein/gene expression in tobacco leaves (immunoblot); format: in vivo; details: for Induction of PR-1 protein synthesis / PR-1 gene induction (in words): N.t. cv. Xanthi nc
Description: The level of PR1 protein in tobacco leaves was analyzed by immunoblot analysis to establish biological activity. Three leaf discs (1 cm in diameter) were homogenized in 200 microliters of buffer containing 50 mM Tris (pH 8.0), 1 mM EDTA, 12 mM beta-mercaptoethanol and 10 mg/ml phenylmethylsulfonyl fluoride. The homogenate was centrifuged at full speed for 10 minutes in an Eppendorf microcentrifuge. The supernatant was fractionated with 15% polyacrylamide gel under denatured conditions. Protein blotting was done with a monoclonal antibody specific to PR1 protein and protein-antibody complexes were detected with an ECL kit from Amersham.
PR gene expression is both induced by SA and associated with the development of SAR. Therefore, it was of interest to test whether SA's mechanism of action for the induction of PR genes was via its inhibition of catalases which leads to enhanced H2 O2 levels. To address this question, H2 O2 abundance was artificially raised in tobacco leaves by treating with H2 O2 or compounds which either inhibit the catalase activity, like SA itself, or promote generation of H2 O2 in vivo. […]

TMV = format: in vivo, tobacco mosaic virus; details: for Enhanced resistance to TMV infection (reduction in lesion size): N.t. cv. Xanthi nc plants, compared to water-treated control plants
Description: The SA/SAG valves are given in micrograms per gram fresh weight of leaf tissue and represent averages of values from 3-6 treated plants at 6 days past injection. […] For determination of reduction in lesion size, longitudinal halves of 2 leaves on 3-6 plants were injection with chemicals, and six days later the entire leaf was infected with TMV. Twenty lesions were measured on each half of the leaf seven days post infection; the values given represent the average percent reduction in lesion diameter in the treated leaf half compared to the untreated half.

catalase = assay: In vivo catalase activity in tobacco suspension cells (oxygen electrode); format: cell-based
Description: This was determined by adding increasing concentrations of SA or INA to tobacco suspension cells (derived from cultivar Xanthi nc), as described below. The tobacco suspension cell culture was grown in the dark in MS medium at approximately 22° C. with agitation (160 rpm). Cells were maintained by diluting 10-fold every 5 days. For experimentation, 5 ml of suspension cells obtained 3 days after dilution was transferred to a 25 ml Erlenmeyer flask and agitated (100 rpm) at room temperature in the absence or presence of SA or INA which had been adjusted to pH 5.8. After 1 hr, 1 ml of the treated cell suspension was transferred to 7 ml of fresh MS medium containing SA or INA in a 10 ml beaker (density was approximately 6 mg cells per ml). Cells were maintained in suspension with a magnetic stir bar. In vivo catalase activity was determined by measuring, with an oxygen electrode, the rate of H2 O2 -dependent O2 production immediately after addition of H2 O2 to 10 mM final concentration.

SABP/catalase = assay: Competition with 14C-labeled SA for SABP/catalase in crude leaf extracts; format: binding, tobacco; details: in vitro
ascorbate peroxidase = assay: Ascorbate peroxidase activity in tobacco leaf extracts; format: biochemical, Nicotiana tabacum cv. Xanthi nc; details: for % Inhibition of ascorbate peroxidase: 200 μM compound, corrected for quenching of auto oxidation
Description: […] Two grams of leaves from 6-8 week old tobacco plants (Nicotiana tabacum cv. Xanthi nc) grown at 22° C. in a 14 hr light cycle were homogenized under liquid nitrogen using a pestle and mortar.
To obtain ascorbate peroxidase-containing extracts, the soluble proteins were extracted by grinding the powder in 10 ml of 100 mM potassium phosphate, pH 7, containing […] ascorbate and 1% (weight/volume) polyvinylpyrrolidone, with a small amount of quartz sand. The homogenate was centrifuged at 14,000 g for 5 min. […] The pellet resulting from centrifugation (14,000 g, 15 min.) was resuspended in extraction buffer (100 mM potassium phosphate, pH7, containing 0.25 mM ascorbate and 1% (weight/volume) polyvinylpyrrolidone) and desalted on a PD-10 column (Pharmacia) equilibrated with 50 mM potassium phosphate, pH 7, containing 100 μM ascorbate. The extract was used immediately. […] The amount of protein per assay was 30-50 μg. Oxidation of ascorbate was followed by the decrease in the absorbance at 290 nm.
The values illustrated in FIG. 17 are the mean values for three replicated assays.

H2 O2 = assay: Abundance of H2O2 in treated tobacco leaves; format: in vivo; details: FIG. 11
Excerpt: The abundance of H2 O2 increased in SA- or 3AT-treated tobacco leaves by 50-60% over the control levels observed in water-treated leaves. […] Thus, elevated levels of H2 O2, and in turn, enhanced oxidative stress in vivo, were consistent with inhibition of catalase activity by SA observed in vitro.

guaiacol peroxidases = assay: Guaiacol peroxidase activity in tobacco leaf extracts; format: biochemical, Nicotiana tabacum cv. Xanthi nc
Description: Inhibition of peroxidase by SA and INA was determined by measuring the enzyme activities in extracts prepared from tobacco leaves in the absence or presence of 100 μM or 1000 μM SA or INA. Two grams of leaves from 6-8 week old tobacco plants (Nicotiana tabacum cv. Xanthi nc) grown at 22° C. in a 14 hr light cycle were homogenized under liquid nitrogen using a pestle and mortar.
Total guaiacol peroxidase activity was extracted with 100 mM potassium phosphate, pH 6.2, containing 1% (weight/volume) polyvinylpyrrolidone. In order to also extract the ionically bound cell wall isozymes, the extraction buffer was supplemented with 600 mM KCl. Extraction and centrifugation steps were as described for ascorbate peroxidase. After removal of cell debris and ammonium sulfate precipitation (85%), the extract was desalted against 50 mM potassium phosphate, pH 6, containing 25% glycerol. The extract could be stored at -20° C. without significant loss of peroxidase activity.
(§1) Guaiacol peroxidase activity was determined by the method of Chance and Maehly (Methods Enzymol. 2: 764 (1955)) using guaiacol as the substrate.
(§2) The formation of tetraguaiacol was monitored at 470 nm. The reaction mixture contained 0.25% guaiacol and 100 mM hydrogen peroxide in 20 mM potassium phosphate, pH 6.2. The amount of protein per 1 ml assay was […]. The reaction was measured for five minutes. The assay for horseradish peroxidase was identical, except that only 0.2-0.5 μg protein was used.

horseradish peroxidase = target: T1, horseradish peroxidase (Armoracia rusticana, UniProt P00433); assay: Horseradish peroxidase activity; format: biochemical
T1 construct: purchased Sigma
T1 sequence (P00433 31-353): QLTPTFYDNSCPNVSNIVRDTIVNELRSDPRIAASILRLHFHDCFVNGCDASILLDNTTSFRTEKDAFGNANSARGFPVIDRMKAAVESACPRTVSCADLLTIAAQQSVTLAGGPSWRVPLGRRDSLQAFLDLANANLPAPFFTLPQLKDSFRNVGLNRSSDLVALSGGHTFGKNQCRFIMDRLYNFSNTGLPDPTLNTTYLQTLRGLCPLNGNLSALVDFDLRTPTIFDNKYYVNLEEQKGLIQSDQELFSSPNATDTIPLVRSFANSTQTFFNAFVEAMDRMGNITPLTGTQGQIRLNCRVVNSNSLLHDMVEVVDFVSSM
Description: Horseradish peroxidase (1 mg; obtained from Sigma) was dissolved in 1.5 ml 200 mM potassium phosphate, pH 6.2, containing 150 mM NaCl. Following a 15 minute incubation at room temperature, the enzyme solution was centrifuged (10,000 g, 10 minutes). After buffer exchange (PD-10, equilibrated with 25 mM potassium phosphate, pH 6.2), the protein concentration was adjusted to 0.5 mg/ml.
as §1, §2

Structure (SMILES) | Effect on salicylic acid binding activity of SABP [1] | Induction of PR-1 protein synthesis / PR-1 gene induction (in words) (PR1 genes) | Enhanced resistance to TMV infection (reduction in lesion size) (TMV) | Inhibition of catalase activity in vivo (in words) (catalase) | Inhibition of binding of 14C-labeled SA to SABP/catalase in vitro (in words) (SABP/catalase) | % Inhibition of ascorbate peroxidase (ascorbate peroxidase) [%] | other results
O[C@H](CS)[C@H](O)CS (racemic) [dithiothreitol] | affected | – | – | – | – | – | –
O=C(O)c1cc(Cl)cc(Cl)c1O [3,5-Dichlorosalicylic acid] | – | potent inducers of PR-1 protein synthesis | enhanced resistance to TMV infection | very effectively inhibited catalase activity | very effectively inhibited | 59 ± 5 | –
Nc1nc[nH]n1 [3AT, 3-amino-1,2,4-triazole] | – | – | – | – | – | – | Induction of PR1 gene expression (PR1 genes; tobacco leaves): induced the expression of PR-1 genes; Increase in abundance of H2O2 over water-treated leaves (H2 O2): 50-60%
O=C(O)c1ccc(Cl)cc1O [4-Chlorosalicylic acid] | – | potent inducers of PR-1 protein synthesis | enhanced resistance to TMV infection | very effectively inhibited catalase activity | very effectively inhibited | 58 ± 4 | –
O=C(O)c1cc(Cl)ccc1O [5-Chlorosalicylic acid] | – | potent inducers of PR-1 protein synthesis | enhanced resistance to TMV infection | very effectively inhibited catalase activity | very effectively inhibited | 73 ± 5 | –
O=C(O)c1cc(Cl)nc(Cl)c1 [INA, 2,6-dichloroisonicotinic acid] | – | – | – | – | – | – | Reduction in lesion size (%) (TMV; TMV infection six days after injection, lesions measured seven days post infection, treated vs untreated leaf half): 72%; IC50 (ascorbate peroxidase; 750 μM ascorbate, 25 to 500 μM compound, FIG. 17, read-out: Concentration necessary for 50% inhibition (I50) of ascorbate peroxidase): 95 µM; Activity (ascorbate peroxidase; APX, 100 μM compound): 2.25 ± 0.4 μmols of oxidized substrate mi; Inhibition (ascorbate peroxidase; APX, 100 μM compound): 54%; Activity (ascorbate peroxidase; APX, 1,000 μM compound): 0.24 ± 0.2 μmols of oxidized substrate mi; Inhibition (ascorbate peroxidase; APX, 1,000 μM compound): 95%; Activity (guaiacol peroxidases; POX, 100 μM compound): 2.8 ± 0.4 μmols of oxidized substrate mi; Inhibition (guaiacol peroxidases; POX, 100 μM compound): 0%; Activity (guaiacol peroxidases; POX, 1,000 μM compound): 2.7 ± 0.4 μmols of oxidized substrate mi; Inhibition (guaiacol peroxidases; POX, 1,000 μM compound): 3%; Activity (horseradish peroxidase; HRP, 100 μM compound): 236 ± 8 μmols of oxidized substrate mi; inhibition at 100 µM (horseradish peroxidase; HRP, 100 μM compound): 1%; Activity (horseradish peroxidase; HRP, 1,000 μM compound): 242 ± 16 μmols of oxidized substrate mi; inhibition at 1000 µM (horseradish peroxidase; HRP, 1,000 μM compound): 0%
O=C1O[C@H]([C@@H](O)CO)C(O)=C1O [ascorbic acid] | little inhibitory effect | – | – | – | – | – | –
OCCS [beta-mercaptoethanol] | affected | – | – | – | – | – | –
